Values of other authors, collected in US8163753B2, “2,3-dihydro-6-nitroimidazo (2,1-b) oxazole compounds for the treatment of tuberculosis” (priority 2003, dated 2012).

Tested on: multi-drug-resistant Mycobacterium tuberculosis
Conditions: literature report; cited from earlier work

## CCC1Cn2cc([N+](=O)[O-])nc2O1 (stereo not shown) [CGI-17341]
  bactericidal action to multi-drug-resistant Mycobacterium tuberculosis: has a bactericidal action
